ChEMBL document CHEMBL4483862, “Open-source discovery of chemical leads for next-generation chemoprotective antimalarials” (2018)

Tested on: Plasmodium berghei
Assay: Luciferase/luciferin-expressing antifolate-resistant parasites were used to infect a culture of HepG2 cells that were pre-incubated with compounds. Infected hepatocytes emit light due to the luciferase reaction. Assay results are presented as the percent inhibition of light emission compared to control. […]
Type: functional
Conditions: sporozoite; for IC90: read-out: LUCIFERASE INFECTION ASSAY - IC90

Compound | IC90 [µM] | also measured
COc1ccccc1OCCNC(=O)c1cc(C2CC2)nc2c1cnn2C(C)C | > 10 | IC50 (FFLUC_HILL_SLOPE 16.8, FFLUC_R_SQUARED 0.0713, HEPG2TOX_HILL_SLOPE 2.22, HEPG2TOX_R_SQUARED 0.212, read-out: LUCIFERASE INFECTION ASSAY - IC50): > 10 µM
Cc1cc(C)c(C)c(S(=O)(=O)N2CCN(CC(=O)c3c(N)n(Cc4ccccc4)c(=O)n(C)c3=O)CC2)c1C | > 10 | IC50 (FFLUC_HILL_SLOPE 17, FFLUC_R_SQUARED 0.51, read-out: LUCIFERASE INFECTION ASSAY - IC50): > 10 µM
CCn1nc(C)c(Br)c1C(=O)Sc1ccccc1Cl | > 9.17 | IC50 (FFLUC_HILL_SLOPE 17.2, FFLUC_R_SQUARED 0.444, read-out: LUCIFERASE INFECTION ASSAY - IC50): > 9.17 µM
CC(Cc1cccs1)N(Cc1ccc(Cl)cc1)C(=O)c1ccc(Cl)c(S(=O)(=O)N2CCCCC2)c1 (configuration not stated) | > 10 | IC50 (FFLUC_HILL_SLOPE 17, FFLUC_R_SQUARED 0.198, read-out: LUCIFERASE INFECTION ASSAY - IC50): > 10 µM
CC(=O)c1ccc(NC(=O)c2nn(-c3ccccc3)c3c2C2CCC3(C)C2(C)C)cc1 (configuration not stated) | > 10 | IC50 (FFLUC_HILL_SLOPE 16.9, FFLUC_R_SQUARED 0.354, read-out: LUCIFERASE INFECTION ASSAY - IC50): > 10 µM
Cc1cc(Oc2ccc(NC(=O)Nc3c(-c4c(Cl)cccc4Cl)noc3C)cn2)cc(C)c1Cl | > 6.37 | IC50 (FFLUC_HILL_SLOPE 16.7, FFLUC_R_SQUARED 0.348, read-out: LUCIFERASE INFECTION ASSAY - IC50): > 6.37 µM
CCOc1ccc(-n2c(Sc3ccc4nnnn4n3)nnc2-c2ccc(C(C)(C)C)cc2)cc1 | 9.4 | IC50 (FFLUC_HILL_SLOPE 16.9, FFLUC_R_SQUARED 0.24, PBLUC_HILL_SLOPE 5, PBLUC_R_SQUARED 0.626, read-out: LUCIFERASE INFECTION ASSAY - IC50): 6.06 µM
Nc1ccc(NC2=C(Cl)C(=O)c3ccccc3C2=O)cc1 | 5.78 | IC50 (FFLUC_HILL_SLOPE 16.7, FFLUC_R_SQUARED 0.273, HEPG2TOX_HILL_SLOPE 2.85, HEPG2TOX_R_SQUARED 0.992, PBLUC_HILL_SLOPE 8.6, PBLUC_R_SQUARED 0.505, read-out: LUCIFERASE INFECTION ASSAY - IC50): 4.48 µM
C/C(=N\NC(N)=S)c1ccc(OCc2ncc(C(F)(F)F)cc2Cl)cc1 | 4.57 | IC50 (FFLUC_HILL_SLOPE 17.3, FFLUC_R_SQUARED 0.0449, HEPG2TOX_HILL_SLOPE 9.24, HEPG2TOX_R_SQUARED 0.314, PBLUC_HILL_SLOPE 1.92, PBLUC_R_SQUARED 0.719, read-out: LUCIFERASE INFECTION ASSAY - IC50): 1.46 µM
CCCCNC(=O)c1c(NC(=O)c2ccccc2F)nc2ccc(C)cn12 | 3.54 | IC50 (FFLUC_HILL_SLOPE 17.2, FFLUC_R_SQUARED 0.157, HEPG2TOX_HILL_SLOPE 8.23, HEPG2TOX_R_SQUARED 0.602, PBLUC_HILL_SLOPE 11.7, PBLUC_R_SQUARED 0.726, read-out: LUCIFERASE INFECTION ASSAY - IC50): 2.94 µM
O=[N+]([O-])c1ccccc1Sc1sc2ncnc(N/N=C/c3ccc(Cl)cc3Cl)c2c1-c1ccccc1 | > 10 | IC50 (FFLUC_HILL_SLOPE 17, FFLUC_R_SQUARED 0.5, read-out: LUCIFERASE INFECTION ASSAY - IC50): > 10 µM
Cc1ccccc1OC1=C(Cl)C(=O)c2ccccc2C1=O | 9.86 | IC50 (FFLUC_HILL_SLOPE 16.7, FFLUC_R_SQUARED 0.318, HEPG2TOX_HILL_SLOPE 9.14, HEPG2TOX_R_SQUARED 0.751, PBLUC_HILL_SLOPE 4.24, PBLUC_R_SQUARED 0.127, read-out: LUCIFERASE INFECTION ASSAY - IC50): 5.87 µM
Cc1nn2c(NCCCn3ccnc3)cc(C(C)(C)C)nc2c1-c1ccccc1 | 3.07 | IC50 (FFLUC_HILL_SLOPE 16.6, FFLUC_R_SQUARED 0.48, HEPG2TOX_HILL_SLOPE 8.1, HEPG2TOX_R_SQUARED 0.76, PBLUC_HILL_SLOPE 15.5, PBLUC_R_SQUARED 0.267, read-out: LUCIFERASE INFECTION ASSAY - IC50): 2.66 µM
Cn1ccc2cc(-c3cn4c(-c5ccc(CO)cc5)cnc4cn3)ccc21 | 0.829 | IC50 (FFLUC_HILL_SLOPE 16.7, FFLUC_R_SQUARED 0.117, HEPG2TOX_HILL_SLOPE 0.88, HEPG2TOX_R_SQUARED 0.915, PBLUC_HILL_SLOPE 3.4, PBLUC_R_SQUARED 0.717, read-out: LUCIFERASE INFECTION ASSAY - IC50): 0.435 µM
Cc1cccc(Cn2nc(C(C)(C)C)cc2-c2nnc(SCC(=O)c3ccccc3)o2)c1 | > 7.39 | IC50 (FFLUC_HILL_SLOPE 16.7, FFLUC_R_SQUARED 0.464, PBLUC_HILL_SLOPE 10.3, PBLUC_R_SQUARED 0.0963, read-out: LUCIFERASE INFECTION ASSAY - IC50): > 7.39 µM
O=C1C=CC(=O)N1c1ccc(Cl)c(Cl)c1 | > 13.6 | IC50 (FFLUC_HILL_SLOPE 16.6, FFLUC_R_SQUARED 0.832, read-out: LUCIFERASE INFECTION ASSAY - IC50): > 13.6 µM

Compound | IC90 [µM] | also measured
O=c1c(-c2ccc(Cl)cc2)c[nH]n1-c1cccc(C(F)(F)F)c1 | > 9.74 | IC50 (FFLUC_HILL_SLOPE 17.4, FFLUC_R_SQUARED 0.432, HEPG2TOX_HILL_SLOPE 8.27, HEPG2TOX_R_SQUARED 0.828, PBLUC_HILL_SLOPE 3.62, PBLUC_R_SQUARED 0.841, read-out: LUCIFERASE INFECTION ASSAY - IC50): 5.59 µM
O=C(NC1=C(Nc2ccc3c(c2)OCCO3)C(=O)c2ccccc2C1=O)c1ccc(Cl)cc1 | > 10 | IC50 (FFLUC_HILL_SLOPE 16.8, FFLUC_R_SQUARED 0.568, PBLUC_HILL_SLOPE 3.91, PBLUC_R_SQUARED 0.215, read-out: LUCIFERASE INFECTION ASSAY - IC50): 6.65 µM
CCCn1c(NC(=O)Cc2coc3cc(OC)ccc23)nc2ccccc21 | 1.31 | IC50 (FFLUC_HILL_SLOPE 16.7, FFLUC_R_SQUARED 0.137, HEPG2TOX_HILL_SLOPE 1.66, HEPG2TOX_R_SQUARED 0.728, PBLUC_HILL_SLOPE 12.1, PBLUC_R_SQUARED 0.477, read-out: LUCIFERASE INFECTION ASSAY - IC50): 1.09 µM
O=C(C(/C=N/O)=N/Nc1ccc(C(F)(F)F)cc1)c1ccc(Br)cc1 | 3.98 | IC50 (FFLUC_HILL_SLOPE 17.5, FFLUC_R_SQUARED 0.273, HEPG2TOX_HILL_SLOPE 2.17, HEPG2TOX_R_SQUARED 0.985, PBLUC_HILL_SLOPE 7.45, PBLUC_R_SQUARED 0.303, read-out: LUCIFERASE INFECTION ASSAY - IC50): 2.96 µM
COc1ccc(CC2CCC(=NOC(=O)c3ccc(C(C)(C)C)cc3)CC2)cc1 (configuration not stated) | > 8.39 | IC50 (FFLUC_HILL_SLOPE 16.8, FFLUC_R_SQUARED 0.295, read-out: LUCIFERASE INFECTION ASSAY - IC50): > 8.39 µM
OCc1ccc(-c2cnc3ccc(-c4cccc(F)c4)nn23)cc1 | 8.2 | IC50 (FFLUC_HILL_SLOPE 16.8, FFLUC_R_SQUARED 0.417, HEPG2TOX_HILL_SLOPE 9.34, HEPG2TOX_R_SQUARED 0.811, PBLUC_HILL_SLOPE 2.28, PBLUC_R_SQUARED 0.536, read-out: LUCIFERASE INFECTION ASSAY - IC50): 3.13 µM
CCN(CC)c1ccc(/C=N/Nc2ccc(C)cc2C)c(O)c1 | > 10 | IC50 (FFLUC_HILL_SLOPE 17.2, FFLUC_R_SQUARED 0.349, PBLUC_HILL_SLOPE 3.28, PBLUC_R_SQUARED 0.115, read-out: LUCIFERASE INFECTION ASSAY - IC50): 5.38 µM
O=C(Nc1ccc(F)c(Cl)c1)Nc1csc(Cc2c(Cl)cccc2Cl)n1 | > 7.66 | IC50 (FFLUC_HILL_SLOPE 16.6, FFLUC_R_SQUARED 0.437, PBLUC_HILL_SLOPE 14.1, PBLUC_R_SQUARED 0.179, read-out: LUCIFERASE INFECTION ASSAY - IC50): 6.61 µM
O=C1Nc2cc(Cl)ccc2/C1=C\c1nn(Cc2ccccc2)cc1-c1cccnc1 | > 10 | IC50 (FFLUC_HILL_SLOPE 16.7, FFLUC_R_SQUARED 0.641, read-out: LUCIFERASE INFECTION ASSAY - IC50): > 10 µM
C/C(=N\NC(=S)NC(C)(C)C)c1cc(Cl)cc(Cl)c1O | > 9.87 | IC50 (FFLUC_HILL_SLOPE 16.6, FFLUC_R_SQUARED 0.277, read-out: LUCIFERASE INFECTION ASSAY - IC50): > 9.87 µM
O=C(OCc1cc(=O)oc2ccc3ccccc3c12)c1ccccc1-c1ccc(C(F)(F)F)cc1 | > 10 | IC50 (FFLUC_HILL_SLOPE 17.5, FFLUC_R_SQUARED 0.62, read-out: LUCIFERASE INFECTION ASSAY - IC50): > 10 µM
CCCCCCCCCONC(=O)Nc1ccc([N+](=O)[O-])cc1 | > 10 | IC50 (FFLUC_HILL_SLOPE 17.3, FFLUC_R_SQUARED 0.0693, PBLUC_HILL_SLOPE 3, PBLUC_R_SQUARED 0.451, read-out: LUCIFERASE INFECTION ASSAY - IC50): 6.31 µM
CC(C)n1c(SCC(=O)N(Cc2ccco2)C2=CCCCC2)nc2ccccc2c1=O | 9.27 | IC50 (FFLUC_HILL_SLOPE 16.9, FFLUC_R_SQUARED 0.338, PBLUC_HILL_SLOPE 11.7, PBLUC_R_SQUARED 0.501, read-out: LUCIFERASE INFECTION ASSAY - IC50): 7.68 µM
O=C(OCC(=O)C12CC3CC(CC(C3)C1)C2)c1ccc(Oc2ccc(Cl)cc2[N+](=O)[O-])cc1 | > 10 | IC50 (FFLUC_HILL_SLOPE 17.5, FFLUC_R_SQUARED 0.352, PBLUC_HILL_SLOPE 8.52, PBLUC_R_SQUARED 0.214, read-out: LUCIFERASE INFECTION ASSAY - IC50): 9.42 µM
O=C1c2ccccc2SC1(c1nc2ccccc2s1)c1nc2ccccc2s1 | 9.86 | IC50 (FFLUC_HILL_SLOPE 17.4, FFLUC_R_SQUARED 0.735, PBLUC_HILL_SLOPE 16.6, PBLUC_R_SQUARED 0.262, read-out: LUCIFERASE INFECTION ASSAY - IC50): 8.63 µM
